Source: PMC10945555, “Improving Activity of New Arylurea Agents against Multidrug-Resistant and Biofilm-Producing Staphylococcus epidermidis” (ACS Medicinal Chemistry Letters, 2024)
≈ marks a conversion by molar mass, not a printed value. Read-outs that look alike come from different tables or passages of the source.

Test system: clinical MDR Staphylococcus epidermidis isolates
Test: MIC, broth microdilution, 81 clinical MDR strains
Type: cell-based
Conditions: Staphylococcus epidermidis
Experimental: 2 Biological assay protocols
Microbiological tests were carried out under aseptic conditions in a laminar chamber of the 2nd […]
(BioTectum 1.2, Alchem Poland). The assessment of antimicrobial activity was carried out for final compounds in the form of free bases, soluble in DMSO (Merck, Germany), at the initial […]
concentration of 1 mg/mL. […]
were provided by Cayman Chemical, USA. […]
The antibacterial activity of selected compounds was also tested on a panel of 81 unrelated, multidrug -resistant clinical strains of Staphylococcus epidermidis from the own collection of the Department of Pharmaceutical Microbiology of the Jagiellonian University Medical College.
2.2 Effect of evaluated compounds on planktonic cells
The susceptibility of three reference bacterial strains (Staphylococcus epidermidis ATCC […]
Table S1) and 81 clinical MDR S. epidermidis (Table S2) to the tested compounds was assessed by determining the MIC value (Minimal Inhibitory Concentration) by microdilution in a liquid medium in 96-well flat-bottom cell culture plates (Nest Biotechnology Scientific, USA). The antibacterial properties of the compo unds were tested in the concentration range from 50 µg/mL to 0.1 µg/mL by making a series of double dilutions of the compound in liquid Mueller -Hinton II Broth Cation Adjusted (MHB II, BBL TM, USA) according to the European Committee on […]
Antimicrobial Susceptibility Testing guidelines (EUCAST).2,3 The determinations were performed twice. The MIC50 and MIC90 values were determined for each of the tested

## O=C(Nc1cccc(Cl)c1)NC1CCN(CCC(Oc2ccc(C(F)(F)F)cc2)c2cccs2)CC1 (centres unmarked) [Compound 25]
81 clinical strains (Table S5), read-out: Average of MIC
  MIC: 1.84 µg/mL (≈ 3.42 µM)
Clinical strain 1 (Table S2), read-out: MIC
  MIC: 0.8 µg/mL (≈ 1.49 µM)
Clinical strain 1 (Table S5), read-out: MIC
  MIC: 1.6 µg/mL (≈ 2.97 µM)
Clinical strain 2 (Table S2), read-out: MIC
  MIC: 0.8 µg/mL (≈ 1.49 µM)
Clinical strain 2 (Table S5), read-out: MIC
  MIC: 1.6 µg/mL (≈ 2.97 µM)
Clinical strain 3 (Table S2), read-out: MIC
  MIC: 0.8 µg/mL (≈ 1.49 µM)
Clinical strain 3 (Table S5), read-out: MIC
  MIC: 0.8 µg/mL (≈ 1.49 µM)
Clinical strain 4 (Table S2), read-out: MIC
  MIC: 3.12 µg/mL (≈ 5.81 µM)
Clinical strain 4 (Table S5), read-out: MIC
  MIC: 1.6 µg/mL (≈ 2.97 µM)
Clinical strain 5 (Table S2), read-out: MIC
  MIC: 0.8 µg/mL (≈ 1.49 µM)
Clinical strain 6 (Table S2), read-out: MIC
  MIC: 1.6 µg/mL (≈ 2.97 µM)
Clinical strain 6 (Table S5), read-out: MIC
  MIC: 1.6 µg/mL (≈ 2.97 µM)
Clinical strain 7 (Table S2), read-out: MIC
  MIC: 1.6 µg/mL (≈ 2.97 µM)
Clinical strain 7 (Table S5), read-out: MIC
  MIC: 1.6 µg/mL (≈ 2.97 µM)
Clinical strain 8 (Table S2), read-out: MIC
  MIC: 1.6 µg/mL (≈ 2.97 µM)
Clinical strain 8 (Table S5), read-out: MIC
  MIC: 0.8 µg/mL (≈ 1.49 µM)
Clinical strain 9 (Table S2), read-out: MIC
  MIC: 0.8 µg/mL (≈ 1.49 µM)
Clinical strain 9 (Table S5), read-out: MIC
  MIC: 3.12 µg/mL (≈ 5.81 µM)
Clinical strain 10 (Table S2), read-out: MIC
  MIC: 3.12 µg/mL (≈ 5.81 µM)
Clinical strain 10 (Table S5), read-out: MIC
  MIC: 3.12 µg/mL (≈ 5.81 µM)
Clinical strain 11 (Table S2), read-out: MIC
  MIC: 1.6 µg/mL (≈ 2.97 µM)
Clinical strain 11 (Table S5), read-out: MIC
  MIC: 1.6 µg/mL (≈ 2.97 µM)
Clinical strain 12 (Table S2), read-out: MIC
  MIC: 3.12 µg/mL (≈ 5.81 µM)
Clinical strain 12 (Table S5), read-out: MIC
  MIC: 1.6 µg/mL (≈ 2.97 µM)
Clinical strain 13 (Table S2), read-out: MIC
  MIC: 1.6 µg/mL (≈ 2.97 µM)
Clinical strain 13 (Table S5), read-out: MIC
  MIC: 1.6 µg/mL (≈ 2.97 µM)
Clinical strain 14 (Table S2), read-out: MIC
  MIC: 3.12 µg/mL (≈ 5.81 µM)
Clinical strain 14 (Table S5), read-out: MIC
  MIC: 1.6 µg/mL (≈ 2.97 µM)
Clinical strain 15 (Table S2), read-out: MIC
  MIC: 1.6 µg/mL (≈ 2.97 µM)
Clinical strain 15 (Table S5), read-out: MIC
  MIC: 3.12 µg/mL (≈ 5.81 µM)
Clinical strain 16 (Table S2), read-out: MIC
  MIC: 3.12 µg/mL (≈ 5.81 µM)
Clinical strain 16 (Table S5), read-out: MIC
  MIC: 1.6 µg/mL (≈ 2.97 µM)
Clinical strain 17 (Table S2), read-out: MIC
  MIC: 1.6 µg/mL (≈ 2.97 µM)
Clinical strain 17 (Table S5), read-out: MIC
  MIC: 0.1 µg/mL (≈ 0.186 µM)
Clinical strain 18 (Table S2), read-out: MIC
  MIC: 1.6 µg/mL (≈ 2.97 µM)
Clinical strain 18 (Table S5), read-out: MIC
  MIC: 3.12 µg/mL (≈ 5.81 µM)
Clinical strain 19 (Table S2), read-out: MIC
  MIC: 1.6 µg/mL (≈ 2.97 µM)
Clinical strain 19 (Table S5), read-out: MIC
  MIC: 0.8 µg/mL (≈ 1.49 µM)
Clinical strain 20 (Table S2), read-out: MIC
  MIC: 0.1 µg/mL (≈ 0.186 µM)
Clinical strain 20 (Table S5), read-out: MIC
  MIC: 1.6 µg/mL (≈ 2.97 µM)
Clinical strain 21 (Table S2), read-out: MIC
  MIC: 1.6 µg/mL (≈ 2.97 µM)
Clinical strain 21 (Table S5), read-out: MIC
  MIC: 1.6 µg/mL (≈ 2.97 µM)
Clinical strain 22 (Table S2), read-out: MIC
  MIC: 1.6 µg/mL (≈ 2.97 µM)
Clinical strain 22 (Table S5), read-out: MIC
  MIC: 0.8 µg/mL (≈ 1.49 µM)
Clinical strain 23 (Table S2), read-out: MIC
  MIC: 1.6 µg/mL (≈ 2.97 µM)
Clinical strain 23 (Table S5), read-out: MIC
  MIC: 1.6 µg/mL (≈ 2.97 µM)
Clinical strain 24 (Table S2), read-out: MIC
  MIC: 0.8 µg/mL (≈ 1.49 µM)
Clinical strain 24 (Table S5), read-out: MIC
  MIC: 1.6 µg/mL (≈ 2.97 µM)
Clinical strain 25 (Table S2), read-out: MIC
  MIC: 3.12 µg/mL (≈ 5.81 µM)
Clinical strain 25 (Table S5), read-out: MIC
  MIC: 0.8 µg/mL (≈ 1.49 µM)
Clinical strain 26 (Table S2), read-out: MIC
  MIC: 1.6 µg/mL (≈ 2.97 µM)
Clinical strain 26 (Table S5), read-out: MIC
  MIC: 3.12 µg/mL (≈ 5.81 µM)
Clinical strain 27 (Table S2), read-out: MIC
  MIC: 0.4 µg/mL (≈ 0.743 µM)
Clinical strain 27 (Table S5), read-out: MIC
  MIC: 3.12 µg/mL (≈ 5.81 µM)
Clinical strain 28 (Table S2), read-out: MIC
  MIC: 0.8 µg/mL (≈ 1.49 µM)
Clinical strain 28 (Table S5), read-out: MIC
  MIC: 0.8 µg/mL (≈ 1.49 µM)
Clinical strain 29 (Table S2), read-out: MIC
  MIC: 1.6 µg/mL (≈ 2.97 µM)
Clinical strain 29 (Table S5), read-out: MIC
  MIC: 0.4 µg/mL (≈ 0.743 µM)
Clinical strain 30 (Table S2), read-out: MIC
  MIC: 3.12 µg/mL (≈ 5.81 µM)
Clinical strain 30 (Table S5), read-out: MIC
  MIC: 0.8 µg/mL (≈ 1.49 µM)
Clinical strain 31 (Table S2), read-out: MIC
  MIC: 0.8 µg/mL (≈ 1.49 µM)
Clinical strain 31 (Table S5), read-out: MIC
  MIC: 1.6 µg/mL (≈ 2.97 µM)
Clinical strain 32 (Table S2), read-out: MIC
  MIC: 1.6 µg/mL (≈ 2.97 µM)
Clinical strain 32 (Table S5), read-out: MIC
  MIC: 1.6 µg/mL (≈ 2.97 µM)
Clinical strain 33 (Table S2), read-out: MIC
  MIC: 3.12 µg/mL (≈ 5.81 µM)
Clinical strain 33 (Table S5), read-out: MIC
  MIC: 1.6 µg/mL (≈ 2.97 µM)
Clinical strain 34 (Table S2), read-out: MIC
  MIC: 1.6 µg/mL (≈ 2.97 µM)
Clinical strain 34 (Table S5), read-out: MIC
  MIC: 1.6 µg/mL (≈ 2.97 µM)
Clinical strain 35 (Table S2), read-out: MIC
  MIC: 1.6 µg/mL (≈ 2.97 µM)
Clinical strain 35 (Table S5), read-out: MIC
  MIC: 1.6 µg/mL (≈ 2.97 µM)
Clinical strain 36 (Table S2), read-out: MIC
  MIC: 0.8 µg/mL (≈ 1.49 µM)
Clinical strain 36 (Table S5), read-out: MIC
  MIC: 1.6 µg/mL (≈ 2.97 µM)
Clinical strain 37 (Table S2), read-out: MIC
  MIC: 1.6 µg/mL (≈ 2.97 µM)
Clinical strain 37 (Table S5), read-out: MIC
  MIC: 1.6 µg/mL (≈ 2.97 µM)
Clinical strain 38 (Table S2), read-out: MIC
  MIC: 1.6 µg/mL (≈ 2.97 µM)
Clinical strain 38 (Table S5), read-out: MIC
  MIC: 1.6 µg/mL (≈ 2.97 µM)
Clinical strain 39 (Table S2), read-out: MIC
  MIC: 1.6 µg/mL (≈ 2.97 µM)
Clinical strain 39 (Table S5), read-out: MIC
  MIC: 0.8 µg/mL (≈ 1.49 µM)
Clinical strain 40 (Table S2), read-out: MIC
  MIC: 1.6 µg/mL (≈ 2.97 µM)
Clinical strain 40 (Table S5), read-out: MIC
  MIC: 0.8 µg/mL (≈ 1.49 µM)
Clinical strain 41 (Table S2), read-out: MIC
  MIC: 0.8 µg/mL (≈ 1.49 µM)
Clinical strain 41 (Table S5), read-out: MIC
  MIC: 1.6 µg/mL (≈ 2.97 µM)
Clinical strain 42 (Table S2), read-out: MIC
  MIC: 0.8 µg/mL (≈ 1.49 µM)
